Columns and labels:
[1] = molecular target: T1, Caspase-5 (Homo sapiens, UniProt P51878); experiment: Inhibition of human recombinant DTT-activated caspase-5 expressed in Escherichia coli using Ac-WEHD-AMC as substrate preincubated for 30 mins followed by substrate addition by fluorescence assay
T1 sequence (P51878 whole entry): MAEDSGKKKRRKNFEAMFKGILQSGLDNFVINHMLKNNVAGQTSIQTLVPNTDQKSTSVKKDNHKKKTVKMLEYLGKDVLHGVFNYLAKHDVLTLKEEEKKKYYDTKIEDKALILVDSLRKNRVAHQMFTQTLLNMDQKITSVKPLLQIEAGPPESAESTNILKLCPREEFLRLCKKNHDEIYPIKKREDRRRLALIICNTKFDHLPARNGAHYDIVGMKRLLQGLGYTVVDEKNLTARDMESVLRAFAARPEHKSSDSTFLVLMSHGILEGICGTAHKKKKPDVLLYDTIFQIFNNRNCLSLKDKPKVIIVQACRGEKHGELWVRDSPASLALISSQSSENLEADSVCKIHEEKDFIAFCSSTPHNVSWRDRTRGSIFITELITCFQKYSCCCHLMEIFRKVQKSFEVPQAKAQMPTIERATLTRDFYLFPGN

[2] = molecular target: T2, Caspase-4 (Homo sapiens, UniProt P49662); experiment: Inhibition of human recombinant N-terminal His-tagged DTT-activated caspase-4 expressed in Escherichia coli using Ac-LEVD-AMC as substrate preincubated for 30 mins followed by substrate addition by fluorescence assay
T2 sequence (P49662 whole entry): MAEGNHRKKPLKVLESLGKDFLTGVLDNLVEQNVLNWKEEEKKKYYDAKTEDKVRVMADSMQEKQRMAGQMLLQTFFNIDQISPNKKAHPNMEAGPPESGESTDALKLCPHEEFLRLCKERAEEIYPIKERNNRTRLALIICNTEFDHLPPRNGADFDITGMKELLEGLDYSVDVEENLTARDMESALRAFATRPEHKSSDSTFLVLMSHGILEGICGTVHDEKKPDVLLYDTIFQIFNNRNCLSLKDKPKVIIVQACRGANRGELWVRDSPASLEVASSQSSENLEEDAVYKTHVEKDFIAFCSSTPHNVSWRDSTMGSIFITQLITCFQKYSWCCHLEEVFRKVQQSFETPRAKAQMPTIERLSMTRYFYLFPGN

[3] = molecular target: T3, Caspase-1 (Homo sapiens, UniProt P29466); experiment: Inhibition of human recombinant DTT-activated caspase-1 expressed in Escherichia coli using WEHD-AMC as substrate after 30 mins by fluorescence assay; conditions: read-out: Ki(app)
T3 sequence (P29466 whole entry): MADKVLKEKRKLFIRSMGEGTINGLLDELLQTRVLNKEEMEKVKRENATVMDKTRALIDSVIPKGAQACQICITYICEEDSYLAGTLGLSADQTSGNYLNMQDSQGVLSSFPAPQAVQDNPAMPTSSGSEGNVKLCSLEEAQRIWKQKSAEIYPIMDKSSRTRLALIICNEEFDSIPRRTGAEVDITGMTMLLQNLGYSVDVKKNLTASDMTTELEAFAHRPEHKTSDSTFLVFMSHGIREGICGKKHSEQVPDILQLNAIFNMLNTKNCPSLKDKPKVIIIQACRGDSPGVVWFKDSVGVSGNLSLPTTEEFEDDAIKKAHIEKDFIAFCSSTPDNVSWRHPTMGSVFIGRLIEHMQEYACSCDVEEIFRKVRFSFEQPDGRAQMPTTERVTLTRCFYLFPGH

[4] = molecular target: T3, Caspase-1; experiment: Inhibition of human recombinant N-terminal His-tagged DTT-activated caspase-1 expressed in Escherichia coli using Ac-WEHD-AMC as substrate preincubated for 30 mins followed by substrate addition by fluorescence assay
[5] = molecular target: T1, Caspase-5; experiment: Inhibition of human recombinant DTT-activated caspase-5 expressed in Escherichia coli using Ac-WEHD-AMC as substrate preincubated for 45 mins followed by substrate addition by fluorescence assay
[6] = molecular target: T1, Caspase-5; experiment: Inhibition of human recombinant DTT-activated caspase-5 expressed in Escherichia coli using Ac-WEHD-AMC as substrate preincubated for 15 mins followed by substrate addition by fluorescence assay

| IC50 [1] | Ki [1] | IC50 [2] | Ki [2] | Ki [4] | IC50 [5] | IC50 [4] | IC50 [6] | SMILES | Ki [3] |
| --- | --- | --- | --- | --- | --- | --- | --- | --- | --- |
| 105 nM | 24 nM | 721 nM | 267 nM | 227 nM | – | 796 nM | – | O=[N+]([O-])c1ccccc1CN1CCN(c2cc(N3CCCC3)nc(N3CCCC3)n2)CC1 | – |
| 178 nM | 41 nM | > 5000 nM | – | 200 nM | – | 700 nM | – | c1ccc(CN2CCN(c3cc(N4CCCC4)nc(N4CCCC4)n3)CC2)cc1 | – |
| 482 nM | 111 nM | 746 nM | 276 nM | 75 nM | – | 262 nM | – | COc1cccc(CN2CCN(c3cc(N4CCCC4)nc(N4CCCC4)n3)CC2)c1 | – |
| 71 nM | 16 nM | 21 nM | 8 nM | 16 nM | – | 56 nM | – | c1ccc(CCN2CCN(c3cc(N4CCCC4)nc(N4CCCC4)n3)CC2)cc1 | – |
| 146 nM | 34 nM | 1060 nM | 393 nM | 303 nM | – | 1060 nM | – | c1cc(CN2CCN(c3cc(N4CCCC4)nc(N4CCCC4)n3)CC2)ccn1 | – |
| 586 nM | 135 nM | 1520 nM | 563 nM | 183 nM | – | 639 nM | – | FC(F)(F)c1ccc(CN2CCN(c3cc(N4CCCC4)nc(N4CCCC4)n3)CC2)cc1 | – |
| 123 nM | 28 nM | 320 nM | 119 nM | 59 nM | – | 205 nM | – | O=C(c1ccccc1)c1ccc(CN2CCN(c3cc(N4CCCC4)nc(N4CCCC4)n3)CC2)cc1 | – |
| 430 nM | 99 nM | 580 nM | 215 nM | 129 nM | – | 450 nM | – | O=[N+]([O-])c1ccc(CN2CCN(c3cc(N4CCCC4)nc(N4CCCC4)n3)CC2)cc1 | – |

More lines, now with the values behind:

| SMILES | IC50 [1] | Ki [1] | IC50 [2] | Ki [2] | Ki [4] | IC50 [5] | IC50 [4] | IC50 [6] | Ki [3] |
| --- | --- | --- | --- | --- | --- | --- | --- | --- | --- |
| C[C@]12C=CC(=O)C=C1CC[C@@H]1C2=CC[C@]2(C)[C@@H](C(=O)CN3CCN(c4cc(N5CCCC5)nc(N5CCCC5)n4)CC3)CC[C@@H]12 | 910 nM | 210 nM | 909 nM | 337 nM | 50 nM | – | – | – | 50 nM |
| c1cncc(CN2CCN(c3cc(N4CCCC4)nc(N4CCCC4)n3)CC2)c1 | 254 nM | 59 nM | 2350 nM | 870 nM | 534 nM | 155 nM | 1870 nM | 2560 nM | – |
| FC(F)(F)c1cc(CN2CCN(c3cc(N4CCCC4)nc(N4CCCC4)n3)CC2)cc(C(F)(F)F)c1 | 210 nM | 48 nM | > 5000 nM | – | 202 nM | – | 706 nM | – | – |
| c1c(N2CCCC2)nc(N2CCCC2)nc1N1CCNCC1 | 205 nM | 47 nM | 560 nM | 207 nM | 130 nM | – | 455 nM | – | – |
| COc1cc(CN2CCN(c3cc(N4CCCC4)nc(N4CCCC4)n3)CC2)cc(OC)c1 | 149 nM | 34 nM | 400 nM | 148 nM | 49 nM | – | 173 nM | – | – |
| c1c(N2CCCC2)nc(N2CCCC2)nc1N1CCN(CC2CCCCC2)CC1 | 254 nM | 59 nM | 826 nM | 306 nM | 27 nM | – | 95 nM | – | – |
